Test results taken from patent US20240058460A1, “METHODS AND COMPOUNDS FOR MODULATING HUNTINGTON'S DISEASE” (Design Therapeutics, Inc., priority 2022, published 2024).

Experiments:
[1] = tested on: human HTT T allele (SNP rs362331C/T) mRNA in GM09197 fibroblasts; test: HTT mRNA, allele-specific RT-PCR in GM09197 fibroblasts, T allele; type: cell-based; details: for IC50: Homo sapiens, Fibroblast, 48 hr, T allele HTT mRNA normalized to GAPDH, relative to vehicle; for Gm09197 Emin 48 hr T Allele (%): lowest % HTT observed at 0.5 nM to 1000 nM compound
Procedure: (§1) Molecular Biology Toolkit: • qPCR primer probe sets: • RNA input normalization was assessed utilizing human glyceraldehyde 3-phosphate dehydrogenase (hGAPDH) TaqMan assay (ThermoFisher cat #4351370) or Human Cyclophillin ([…]) TaqMan assay (ThermoFisher cat #4351372) • Total HTT detection was assessed utilizing human Htt TaqMan assay (ThermoFisher cat #4331182) • Allele-specific detection of human HTT expression in HD cells containing the SNP rs362331C/T (Exon 50): for each assay, allele-specific probes to detect the SNP variant contained locked nucleic acid bases to improve allele discrimination, as compared to unmodified DNA probes. • 362331-F (331 forward primer) • 362331-R (331 reverse primer) • 362331-C probe: TCC CTC ATC+C+AC TGT GT • 362331-T probe: CTC+A+T+C+T+A+C TGT GT • qPCR was performed using Agpath ID one-step reverse transcriptase polymerase chain reaction (RT-PCR) reagent
(§2) Screening of HD molecules methods: GM09197 and/or GM04022 fibroblasts were cultured in T175 flasks incubated at 37° C. and 5% CO2. Once confluency was reached, the media was removed, the cells were washed with 1×PBS, and cells were dissociated using TrypLE™ Express Enzyme. Media was added to the enzyme and collected into a 15-mL conical tube and centrifuged at 500×g for 5 minutes to pellet the cells. Media and enzyme were aspirated using a serological pipette. Cells were resuspended in fresh media and counted using a Countess 3 Automated Cell Counter. Cells were plated at a density of 15,000 cells/well in a tissue culture-treated polystyrene 96-well dish and incubated at 37° C. and 5% CO2 overnight. The next day, media was removed using an 8-channel aspirator. 200 μL media/well are added back into the plate. The molecules are formulated to 1 mM and are dispensed using a Multidrop™ Pico 8 Digital Dispenser. After a 48-hour incubation with compounds, media was removed from plates, cells were washed with 1×PBS, and cells were lysed in 40 μL per well guanidinium thiocyanate buffer. RNA was isolated and purified in […] glass fiber column plates using chaotropic salts. Human mtHTT, wtHTT, and GAPDH mRNA were measured via RT-PCR using the ThermoFisher QuantStudio™ 7 Flex System in 384-well format. Results of HTT levels were normalized to GAPDH mRNA levels. Normalized HTT mRNA levels were expressed relative to vehicle-treated samples to assess fold change after molecule treatment.
(§3) Emin for each compound is the lowest % HTT concentration observed within a compound concentration of 0.5 nM to 1000 nM.

[2] = tested on: human HTT C allele (SNP rs362331C/T) mRNA in GM09197 fibroblasts; test: HTT mRNA, allele-specific RT-PCR in GM09197 fibroblasts, C allele; type: cell-based; details: for GM 09197 E min 48 Hr C Allele (%): lowest % HTT observed at 0.5 nM to 1000 nM compound; for IC50: Homo sapiens, Fibroblast, 48 hr, C allele HTT mRNA normalized to GAPDH, relative to vehicle
Procedure: as §1, §2, §3

SMILES | IC50 [1] [nM] | Gm09197 Emin 48 hr T Allele (%) [1] | GM 09197 E min 48 Hr C Allele (%) [2] | IC50 [2] [nM]
CCS(=O)(=O)Nc1ccc(Oc2ccc(F)cc2F)c(-c2cn(C)c(=O)c3[nH]c(C(=O)Nc4ccc(OCCOCCOCCOCCOCCOCCOCCOCCOCCNC(=O)c5cc(NC(=O)c6nc(NC(=O)[C@H](N)CCNC(=O)c7cc(NC(=O)c8nc(NC(=O)CCNC(=O)c9cc(NC(=O)c%10nccn%10C)cn9C)cn8C)cn7C)cn6C)cn5C)cc4)cc23)c1 [Compound A-21] | > 1000 | A (A>90%) | A (A>90%) | > 1000
CC(=O)Nc1c(F)cc(C(=O)NC2CCC(O)CC2)cc1O[C@@H](C)c1cccc(OCCOCCOCCOCCOCCOCCOCCOCCOCCOCCOCCOCCOCCOCCOCCOCCNC(=O)CCNC(=O)c2nc(NC(=O)c3cc(NC(=O)CCNC(=O)c4nc(NC(=O)CCCNC(=O)c5cc(NC(=O)c6nc(NC(=O)CCNC(=O)c7cc(NC(=O)c8nccn8C)cn7C)cn6C)cn5C)cn4C)cn3C)cn2C)c1 (some centres unmarked) [Compound A-31] | > 1000 | – | – | > 1000
CC(=O)Nc1c(F)cc(C(=O)N[C@H]2CC[C@H](O)CC2)cc1O[C@@H](C)c1cccc(C(=O)NCCOCCOCCOCCOCCOCCOCCOCCOCCOCCOCCOCCOCCOCCOCCOCCNC(=O)CCNC(=O)c2nc(NC(=O)c3cc(NC(=O)CCNC(=O)c4nc(NC(=O)CCCNC(=O)c5cc(NC(=O)c6nc(NC(=O)CCNC(=O)c7cc(NC(=O)c8nccn8C)cn7C)cn6C)cn5C)cn4C)cn3C)cn2C)c1 [Compound A-32] | > 1000 | – | – | > 1000
Cc1sc2c(c1C)C(c1ccc(Cl)cc1)=N[C@@H](CC(=O)Nc1ccc(OCCOCCOCCOCCOCCOCCOCCOCCOCCNC(=O)c3cc(NC(=O)c4nc(NC(=O)[C@H](N)CCNC(=O)c5cc(NC(=O)c6nc(NC(=O)CCNC(=O)c7cc(NC(=O)c8nccn8C)cn7C)cn6C)cn5C)cn4C)cn3C)cc1)c1nnc(C)n1-2 [Compound A-35] | > 1000 | – | A (A>90%) | > 1000
CCS(=O)(=O)Nc1ccc(Oc2ccc(F)cc2F)c(-c2cn(C)c(=O)c3[nH]c(C(=O)Nc4ccc(OCCOCCOCCOCCOCCOCCOCCOCCOCCOCCOCCOCCOCCOCCOCCOCCNC(=O)c5cc(NC(=O)c6nc(NC(=O)[C@H](N)CCNC(=O)c7cc(NC(=O)c8nc(NC(=O)CCNC(=O)c9cc(NC(=O)c%10nccn%10C)cn9C)cn8C)cn7C)cn6C)cn5C)cc4)cc23)c1 [Compound A-36] | > 1000 | A (A>90%) | A (A>90%) | > 1000
Cc1sc2c(c1C)C(c1ccc(Cl)cc1)=N[C@@H](CC(=O)Nc1ccc(OCCOCCOCCOCCOCCOCCOCCOCCOCCOCCOCCOCCOCCOCCOCCOCCNC(=O)c3cc(NC(=O)c4nc(NC(=O)c5cc(NC(=O)[C@@H](N)CCNC(=O)c6nc(NC(=O)CCNC(=O)c7cc(NC(=O)c8nccn8C)cn7C)cn6C)cn5C)cn4C)cn3C)cc1)c1nnc(C)n1-2 [Compound A-38] | > 1000 | A (A>90%) | A (A>90%) | > 1000
CCS(=O)(=O)Nc1ccc(Oc2ccc(F)cc2F)c(-c2cn(C)c(=O)c3[nH]c(C(=O)Nc4ccc(OCCOCCOCCOCCOCCOCCOCCOCCOCCNC(=O)c5cc(NC(=O)c6nc(NC(=O)c7cc(NC(=O)[C@@H](N)CCNC(=O)c8nc(NC(=O)CCNC(=O)c9cc(NC(=O)c%10nccn%10C)cn9C)cn8C)cn7C)cn6C)cn5C)cc4)cc23)c1 [Compound A-39] | > 1000 | – | – | > 1000
CCS(=O)(=O)Nc1ccc(Oc2ccc(F)cc2F)c(-c2cn(C)c(=O)c3[nH]c(C(=O)Nc4ccc(OCCOCCOCCOCCOCCOCCOCCOCCOCCOCCOCCOCCOCCOCCOCCOCCNC(=O)c5cc(NC(=O)c6nc(NC(=O)c7cc(NC(=O)[C@@H](N)CCNC(=O)c8nc(NC(=O)CCNC(=O)c9cc(NC(=O)c%10nccn%10C)cn9C)cn8C)cn7C)cn6C)cn5C)cc4)cc23)c1 [Compound A-40] | > 1000 | A (A>90%) | A (A>90%) | > 1000
Cc1sc2c(c1C)C(c1ccc(Cl)cc1)=N[C@H](CC(=O)Nc1ccc(OCCOCCOCCOCCOCCOCCOCCOCCOCCOCCOCCOCCOCCOCCOCCOCCNC(=O)CCNC(=O)c3nc(NC(=O)c4cc(NC(=O)CCNC(=O)c5nc(NC(=O)CCCNC(=O)c6cc(NC(=O)c7nc(NC(=O)CCNC(=O)c8cc(NC(=O)c9nccn9C)cn8C)cn7C)cn6C)cn5C)cn4C)cn3C)cc1)c1nnc(C)n1-2 [Compound A-45] | > 1000 | C (C<80%) | C (C<80%) | > 1000
Cn1cc(NC(=O)c2nc(NC(=O)CCNC(=O)c3cc(NC(=O)c4nccn4C)cn3C)cn2C)cc1C(=O)NCCCC(=O)Nc1cn(C)c(C(=O)NCCC(=O)Nc2cc(C(=O)Nc3cn(C)c(C(=O)NCCC(=O)NCCOCCOCCOCCOCCOCCOCCOCCOCCN4C[C@H](Nc5cnn(C)c(=O)c5Br)C[C@H](c5ccccc5)C4)n3)n(C)c2)n1 [Compound A-48] | > 1000 | A (A>90%) | A (A>90%) | > 1000
Cn1cc(NC(=O)c2nc(NC(=O)CCNC(=O)c3cc(NC(=O)c4nccn4C)cn3C)cn2C)cc1C(=O)NCCCC(=O)Nc1cn(C)c(C(=O)NCCC(=O)Nc2cc(C(=O)Nc3cn(C)c(C(=O)NCCC(=O)NCCOCCOCCOCCOCCOCCOCCOCCOCCOCCOCCOCCOCCOCCOCCOCCN4C[C@H](Nc5cnn(C)c(=O)c5Br)C[C@H](c5ccccc5)C4)n3)n(C)c2)n1 [Compound A-49] | > 1000 | A (A>90%) | A (A>90%) | > 1000
Cc1noc(C)c1-c1ccc2c(c1)nc(CCc1ccc(OCCOCCOCCOCCOCCOCCOCCOCCOCCNC(=O)CCNC(=O)c3nc(NC(=O)c4cc(NC(=O)CCNC(=O)c5nc(NC(=O)CCCNC(=O)c6cc(NC(=O)c7nc(NC(=O)CCNC(=O)c8cc(NC(=O)c9nccn9C)cn8C)cn7C)cn6C)cn5C)cn4C)cn3C)c(Cl)c1)n2C[C@H](C)N1CCOCC1 [Compound A-53] | > 1000 | – | A (A>90%) | > 1000
Cc1noc(C)c1-c1ccc2c(c1)nc(CCc1ccc(OCCOCCOCCOCCOCCOCCOCCOCCOCCOCCOCCOCCOCCOCCOCCOCCNC(=O)CCNC(=O)c3nc(NC(=O)c4cc(NC(=O)CCNC(=O)c5nc(NC(=O)CCCNC(=O)c6cc(NC(=O)c7nc(NC(=O)CCNC(=O)c8cc(NC(=O)c9nccn9C)cn8C)cn7C)cn6C)cn5C)cn4C)cn3C)c(Cl)c1)n2C[C@H](C)N1CCOCC1 [Compound A-54] | > 1000 | – | – | > 1000
CCNC(=O)c1cc2c(-c3cc(S(C)(=O)=O)ccc3Oc3ccc(OCCOCCOCCOCCOCCNC(=O)CCNC(=O)c4nc(NC(=O)c5cc(NC(=O)CCNC(=O)c6nc(NC(=O)CCCNC(=O)c7cc(NC(=O)c8nc(NC(=O)CCNC(=O)c9cc(NC(=O)c%10nccn%10C)cn9C)cn8C)cn7C)cn6C)cn5C)cn4C)cc3F)cn(C)c(=O)c2[nH]1 [Compound A-55] | > 1000 | A (A>90%) | A (A>90%) | > 1000
CC(=O)N1c2ccc(-c3ccn(CCOCCOCCOCCOCCOCCOCCOCCOCCOCCOCCOCCOCCOCCOCCOCCNC(=O)CCNC(=O)c4nc(NC(=O)c5cc(NC(=O)CCNC(=O)c6nc(NC(=O)CCCNC(=O)c7cc(NC(=O)c8nc(NC(=O)CCNC(=O)c9cc(NC(=O)c%10nccn%10C)cn9C)cn8C)cn7C)cn6C)cn5C)cn4C)n3)cc2[C@H](Nc2ccc(C#N)cc2)C[C@@H]1C [Compound A-56] | 104 | C (C<80%) | C (C<80%) | > 1000
